By MIC is commonly meant the least concentration at which growth counts as inhibited. As a reminder, the IC50 is the concentration needed to halve the response being measured.

The structures appear in SMILES notation. ≈ marks a conversion by molar mass, not a printed value. Calls of active or inactive are those of the source. No cut-off for these calls is given here.

In test [1] the test system is Mycobacterium tuberculosis. As to the kind of experiment: Antibacterial activity against Mycobacterium tuberculosis H37Rv by microplate alamar blue assay. To be noted: for MIC: Mycobacterium tuberculosis, H37Rv. The format is functional. Also on record: Activity: concentration or dose not given beside the values. Background: Resazurin is reduced to fluorescent resorufin, in cell work by metabolically active cells.

Test [2] relates to Microglia. As to the kind of experiment: Antiinflammatory activity in Escherichia coli lipopolysaccharide-activated rat neonatal microglia assessed as inhibition of eicosanoid thromboxane B2 at 30 uM. Format: functional, cell-based.
The subject of test [3] is Microglia. As to the kind of experiment: Antiinflammatory activity in Escherichia coli lipopolysaccharide-activated rat neonatal microglia assessed as inhibition of oxygen radical at 30 uM. Format: functional.
The test system of another test is P388. Description: Cytotoxicity against mouse P388 cells. Format: functional, cell-based.
For test [4], the system named is Mycobacterium tuberculosis. As to the kind of experiment: Antibacterial activity against Mycobacterium tuberculosis H37Rv at 0.5 ug/mL by microplate alamar blue assay. Format: functional.
The subject of test [5] is Microglia. Description: Antiinflammatory activity in Escherichia coli lipopolysaccharide-activated rat neonatal microglia assessed as inhibition of oxygen radical. Format: functional, cell-based.
A short description of test [6]: Antiinflammatory activity in Escherichia coli lipopolysaccharide-activated rat neonatal microglia assessed as inhibition of eicosanoid thromboxane B2. Format: functional, cell-based.

In turn, `O[C@]12C=C(c3nccc4c3[nH]c3ccccc34)[C@@H]3CCN(CCCC/C=C\CC1)C[C@@]31C[C@@H]3CCCCCCN3[C@H]12` [32,33-DIHYDROMANZAMINE A] came in with an Activity in test [1] of 95%. In addition, in test [1], the MIC is < 12.5 µg/mL. Also, the result in the test with Microglia [2] and in the test with Microglia [3] was inactive.
Regarding `Oc1cccc2c1[nH]c1c(C3=C[C@@]4(O)CC/C=C\CCCCN5CC[C@@H]3[C@]3(CC6/C=C\CCCCN6[C@H]34)C5)nccc12` (some centres undefined), the Activity in test [1] was found to be 100%. In addition, in test [1], the MIC is < 6.25 µg/mL. The result with Microglia [2] and in the test with Microglia [3] was inactive. Also, in the test on P388, the IC50 is > 20 µg/mL.
For `CC(=O)Oc1cccc2c1[nH]c1c([C@@H]3C=C4CC/C=C\CCCCN5CC[C@H]3[C@]3(C5)C(C(C)=O)=C5/C=C\CCCCN5[C@H]43)nccc12`, the Activity in test [1] came to 95%. Further, in test [1], the MIC is < 12.5 µg/mL. For the same compound, the result with Microglia [2] and with Microglia [3] was inactive.
Regarding `CC(=O)Oc1cccc2c1[nH]c1c([C@@H]3C=C4CC/C=C\CCCCN5CC[C@H]3[C@]3(C5)C(C(C)=O)=C5/C(C(C)=O)=C\CCCCN5[C@H]43)nccc12`, in test [1], the Activity came to 95% and the MIC was < 12.5 µg/mL. The result with Microglia [2] was inactive. Moreover, the result with Microglia [3] was inactive.
With `Oc1cccc2c1[nH]c1c(C3=C[C@]4(O)CC/C=C\CCCCN5CC[C@H]3[C@@]3(C[C@H]6CC[C@@H](O)CCCN6[C@@H]34)C5)nccc12` [31ALPHA-HYDROXY-32,33-DIHYDRO-8-HYDROXYMANZAMINE A], in test [1], the Activity came to 61%. In addition, the outcome in the test with Microglia [2] and with Microglia [3] was inactive.
As to `O=C1CCCN2[C@@H](CC1)C[C@]13CN4CCCC/C=C\CC[C@](O)(C=C(c5nccc6c5[nH]c5c(O)cccc56)C1CC4)[C@H]23` (some centres undefined) [MANZAMINE F], in test [1], the Activity came out at 95% and the MIC was < 12.5 µg/mL. Besides, the outcome with Microglia [2] was inactive. In addition, the outcome in the test on Microglia [3] was inactive.
The compound `O[C@@H]1CCCN2CC[C@@H]1O[C@@]13CC[C@@H](OC[C@]45CN6CCCC/C=C\CC[C@](O)(C=C(c7nccc8c7[nH]c7ccccc78)[C@@H]4CC6)[C@H]25)[C@@H](O)CCN1[C@@H]1[C@]2(CN4CCCC/C=C\CC[C@]1(O)C=C(c1nccc5c1[nH]c1ccccc15)[C@@H]2CC4)C3` [NEO-KAULUAMINE] showed an Activity in test [1] of 44%.
In the case of `CC(=O)C1=C2/C(C(C)=O)=C\CCCCN2[C@H]2C3=C[C@H](c4nccc5c4[nH]c4ccccc45)[C@@H]4CCN(CCCC/C=C\CC3)C[C@]124`, in test [1], the Activity was found to be 95% and the MIC was < 12.5 µg/mL. Further, in the test with Microglia [2], the result was inactive. The result in the test with Microglia [3] was inactive.
As for `CO[C@H]1/C=C/O[C@@]2(C)Oc3c(C)c(O)c4c(O)c(c(/C=N/N5CCN(C)CC5)c(O)c4c3C2=O)NC(=O)/C(C)=C\C=C\[C@H](C)[C@H](O)[C@@H](C)[C@@H](O)[C@@H](C)[C@H](OC(C)=O)[C@@H]1C` [RIFAMPIN], in test [4], the Activity amounted to 100%.
Regarding `Oc1cccc2c1[nH]c1c([C@H]3C[C@@]4(O)CCCCCCCCN5CC[C@@H]3[C@]3(C[C@@H]6CCCCCCN6[C@@H]43)C5)nccc12` [10,11,15,16,32,33-HEXAHYDRO-8-HYDROXYMANZAMINE A], in the test with Microglia [5], the outcome was inactive. Moreover, in test [1], the Activity came to 95% and the MIC was < 12.5 µg/mL. In test [6], the IC50 was found to be 1970 nM.
Turning to `CC(=O)O/C(C)=C1\C[C@@H](OC(C)=O)CCCN2C1=C(C(C)=O)[C@@]13CN4CCCC/C=C\CCC(=C[C@@H](c5nccc6c5[nH]c5c(OC(C)=O)cccc56)[C@H]1CC4)[C@@H]23`, in test [1], the Activity is given as 95% and the MIC was < 12.5 µg/mL. Besides, the result in the test on Microglia [2] was inactive. Also, the result in the test with Microglia [3] was inactive.
Turning to `O[C@]12C=C(c3nccc4c3[nH]c3ccccc34)[C@@H]3CCN(CCCC/C=C\CC1)C[C@@]31C[C@@H]3/C=C\CCCCN3[C@H]12` [MANZAMINE A], the result with Microglia [5] was inactive. Besides, in test [1], the Activity was found to be 95% and the MIC is < 12.5 µg/mL. Further, the IC50 in test [6] is < 100 nM.
Regarding `Oc1cccc2c1[nH]c1c(C3=C[C@]4(O)CC/C=C\CCCCN5CC[C@H]3[C@@]3(C[C@H]6/C=C\CCCCN6[C@@H]34)C5)nccc12` [ENT-8-HYDROXYMENZAMINE A], the outcome in the test on Microglia [5] was inactive. In addition, in test [1], the Activity came to 95% and the MIC was < 12.5 µg/mL. The IC50 in the test with P388 is 0.25 µg/mL (≈ 0.443 µM). In addition, in test [6], the IC50 came out at 250 nM.
In turn, `O[C@]12C=C(c3nccc4c3[nH]c3ccccc34)[C@@H]3CCN(CCCCCCCC1)C[C@@]31C[C@@H]3CCCCCCN3[C@H]12` [TETRAHYDROMANZAMINE A] came in with an Activity in test [1] of 95%. In test [1], the MIC was < 12.5 µg/mL. For the same compound, the outcome in the test on Microglia [2] and with Microglia [3] was inactive.
In turn, `Oc1cccc2c1[nH]c1c(C3=C[C@]4(O)CC/C=C\CCCCN5CC[C@H]3[C@@]3(C[C@H]6CC[C@H](O)CCCN6[C@@H]34)C5)nccc12` [31BETA-HYDROXY-32,33-DIHYDRO-8-HYDROXYMANZAMINE A] registered an Activity in test [1] of 100%. In test [1], the MIC was < 6.25 µg/mL. Moreover, the result with Microglia [2] and in the test with Microglia [3] was inactive.
On to `Oc1cccc2c1[nH]c1c(C3=C[C@]4(O)CCCCCCCCN5CC[C@H]3[C@@]3(C[C@H]6CCCCCCN6[C@@H]34)C5)nccc12`, for which, in test [1], the Activity is given as 95% and the MIC was < 12.5 µg/mL. For the same compound, in the test on Microglia [2], the result was inactive. In the test with Microglia [3], the outcome was inactive.
With `CC(=O)C1=C2/C=C\CCCCN2[C@H]2C3=C[C@H](c4nccc5c4[nH]c4ccccc45)[C@@H]4CCN(CCCC/C=C\CC3)C[C@]124`, the result with Microglia [2] and with Microglia [3] was inactive.
On to `CC(=O)Oc1cccc2c1[nH]c1c(C3=C[C@]4(OC(C)=O)CC/C=C\CCCCN5CC[C@H]3[C@@]3(C[C@H]6/C=C\CCCCN6[C@@H]34)C5)nccc12`, for which, in test [1], the Activity was 95%. Besides, the minimal inhibitory concentration (MIC) in test [1] is < 12.5 µg/mL. The outcome with Microglia [2] and with Microglia [3] was inactive.
Take `Oc1cccc2c1[nH]c1c(C3=C[C@@]4(O)CCCCCCCCN5CC[C@@H]3[C@]3(C[C@@H]6CCCCCCN6[C@H]34)C5)nccc12` [15,16,32,33-TETRAHYDRO-8-HYDROXYMANZAMINE A]: in test [1], the Activity was 95% and the MIC was < 12.5 µg/mL. Moreover, the result with Microglia [2] was inactive. Moreover, the outcome with Microglia [3] was inactive.
